{"source": "patent US8148086B2", "about": "“Methods to predict and prevent resistance to taxoid compounds” (Children's Medical Center Corporatioin, priority 2005, dated 2012)", "key": {"[1]": {"tested_on": "MES-SA and MES-SA/DX5 cells", "experiment": "MTT cytotoxicity assay, paclitaxel on cell proliferation/survival", "type": "cell-based, human", "details": "MTT 72 h after paclitaxel addition", "description": "(§1) FIGS. 1A and 1B show graphs illustrating the effect of paclitaxel on cell proliferation. A549 and A549 TR cell lines (FIG. 1A) and MES-SA and MES-SA-DX5 cell lines (FIG. 1B) were treated with various concentrations of paclitaxel. 24 hours after 1×10^4 cells/well were seeded in 96 well plates. MTT assay for cell survival was performed 72 h after paclitaxel addition. X axis: concentration of paclitaxel, Y axis-% survival.\n(§2) Cell Culture. The human non-small cell lung carcinoma cell line A549 and its Paclitaxel-resistant derivative cell lines were cultured in F-12 Ham nutrient mixture (Invitrogren, Carlsbad, Calif.) supplemented with 10% fetal bovine serum (FBS) at 37° C. in a humidified atmosphere with 5% CO2/95% air. The paclitaxel-resistant cell lines were grown under selective pressure (100 nM paclitaxel), then placed in Paclitaxel-free culture medium 5-7 days before experiments were performed. The uterine sarcoma cells (MES-SA) and the multidrug resistant derivative (MES-SA/DX5) were maintained in McCoy's 5A media (ATCC, Rockville, Md.) supplemented with 10% FBS. […]\n(§3) Cytotoxicity Assays. Cell growth inhibition was determined by 3-(4,5-dimethylthiazol-2-yl)-2,5-diphenyltetrazolium (MTT) bromide assay using MTT (Sigma Chemicals, St. Louis, Mo.) reagent in 96-well plates. […] Absorbance was determined using a 96-well SpectraMax plate reader (Molecular Devices, Sunnyvale, Calif.) at 570 nm."}, "[2]": {"tested_on": "A549 and A549-TR cells", "experiment": "MTT cytotoxicity assay, paclitaxel on cell proliferation/survival", "type": "cell-based, human", "details": "MTT 72 h after paclitaxel addition", "description": "as §1, §2, §3"}}}
{"smiles": "CC(=O)O[C@H]1C(=O)[C@@]2(C)[C@H]([C@H](OC(=O)c3ccccc3)[C@]3(O)C[C@H](OC(=O)[C@H](O)[C@@H](NC(=O)c4ccccc4)c4ccccc4)C(C)=C1C3(C)C)[C@]1(OC(C)=O)CO[C@@H]1C[C@@H]2O", "note": "[paclitaxel, Paclitaxel]", "values": [{"measurement": "difference in sensitivity to paclitaxel, resistant subline vs parental line", "setting": "[1]", "result": "greater than 100 fold"}, {"measurement": "difference in sensitivity to paclitaxel, resistant subline vs parental line", "setting": "[2]", "result": "greater than 100 fold"}]}
